Source: ChEMBL document CHEMBL5653631, “A Potent and Selective ULK1 Inhibitor Suppresses Autophagy and Sensitizes Cancer Cells to Nutrient Stress” (iScience, 2018)
One block for each compound: values may come before it.

Legend:
[1] = molecular target: Fibroblast growth factor receptor 3 (Homo sapiens) (UniProt P22607); assay: Inhibition of human recombinant FGFR3 at 500 nM in presence of ATP by radiometric assay relative to control
[2] = molecular target: T1, Tyrosine-protein kinase ITK/TSK (Homo sapiens) (UniProt Q08881); assay: Inhibition of human recombinant ITK at 500 nM in presence of ATP by radiometric assay relative to control
T1 sequence (whole entry): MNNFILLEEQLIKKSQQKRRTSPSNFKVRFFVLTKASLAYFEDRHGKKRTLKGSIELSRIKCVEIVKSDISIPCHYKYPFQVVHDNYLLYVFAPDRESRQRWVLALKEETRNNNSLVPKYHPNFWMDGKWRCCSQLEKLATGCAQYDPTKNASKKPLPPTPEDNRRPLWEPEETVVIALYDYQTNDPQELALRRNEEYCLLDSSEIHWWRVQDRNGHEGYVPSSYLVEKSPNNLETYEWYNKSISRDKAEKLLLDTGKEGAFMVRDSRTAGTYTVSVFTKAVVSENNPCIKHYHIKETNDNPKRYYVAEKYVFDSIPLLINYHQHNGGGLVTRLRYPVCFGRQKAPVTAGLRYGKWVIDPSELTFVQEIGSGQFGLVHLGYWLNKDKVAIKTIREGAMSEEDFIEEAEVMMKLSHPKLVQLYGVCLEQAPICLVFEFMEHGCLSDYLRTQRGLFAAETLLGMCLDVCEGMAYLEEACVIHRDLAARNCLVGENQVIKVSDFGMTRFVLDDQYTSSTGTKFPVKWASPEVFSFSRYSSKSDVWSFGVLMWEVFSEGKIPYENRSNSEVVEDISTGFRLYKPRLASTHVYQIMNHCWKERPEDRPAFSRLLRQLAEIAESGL

[3] = molecular target: T2, cAMP-dependent protein kinase catalytic subunit PRKX (Homo sapiens) (UniProt P51817); assay: Inhibition of human recombinant PRKX at 500 nM in presence of ATP by radiometric assay relative to control
T2 sequence (whole entry): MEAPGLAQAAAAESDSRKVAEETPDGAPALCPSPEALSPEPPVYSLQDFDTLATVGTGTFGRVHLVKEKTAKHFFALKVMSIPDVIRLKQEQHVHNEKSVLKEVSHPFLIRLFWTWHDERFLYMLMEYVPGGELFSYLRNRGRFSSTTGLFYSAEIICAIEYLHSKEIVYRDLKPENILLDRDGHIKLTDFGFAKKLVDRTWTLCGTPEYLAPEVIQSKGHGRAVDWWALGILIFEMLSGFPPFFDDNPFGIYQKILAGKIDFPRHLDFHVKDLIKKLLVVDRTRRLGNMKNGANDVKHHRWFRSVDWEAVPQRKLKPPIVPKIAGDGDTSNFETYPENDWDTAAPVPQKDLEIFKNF

[4] = molecular target: T3, Serine/threonine-protein kinase Sgk2 (Homo sapiens) (UniProt Q9HBY8); assay: Inhibition of human recombinant SGK2 at 500 nM related to control ULK1
T3 sequence (whole entry): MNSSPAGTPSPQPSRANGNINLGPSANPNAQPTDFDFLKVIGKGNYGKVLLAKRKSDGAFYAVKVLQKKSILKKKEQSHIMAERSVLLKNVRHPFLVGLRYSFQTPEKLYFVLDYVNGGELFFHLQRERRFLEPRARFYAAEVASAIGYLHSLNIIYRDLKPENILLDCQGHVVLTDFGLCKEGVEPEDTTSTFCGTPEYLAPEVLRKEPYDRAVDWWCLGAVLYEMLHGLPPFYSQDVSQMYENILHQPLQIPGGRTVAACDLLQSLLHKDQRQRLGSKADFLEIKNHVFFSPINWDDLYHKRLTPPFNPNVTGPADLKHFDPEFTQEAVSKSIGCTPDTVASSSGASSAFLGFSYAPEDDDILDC

[5] = molecular target: Protein kinase C iota type (Homo sapiens) (UniProt P41743); assay: Inhibition of human recombinant PKCi at 500 nM related to control ULK1
Protein kinase C iota type (Homo sapiens), sequence (P41743 whole entry, looked up): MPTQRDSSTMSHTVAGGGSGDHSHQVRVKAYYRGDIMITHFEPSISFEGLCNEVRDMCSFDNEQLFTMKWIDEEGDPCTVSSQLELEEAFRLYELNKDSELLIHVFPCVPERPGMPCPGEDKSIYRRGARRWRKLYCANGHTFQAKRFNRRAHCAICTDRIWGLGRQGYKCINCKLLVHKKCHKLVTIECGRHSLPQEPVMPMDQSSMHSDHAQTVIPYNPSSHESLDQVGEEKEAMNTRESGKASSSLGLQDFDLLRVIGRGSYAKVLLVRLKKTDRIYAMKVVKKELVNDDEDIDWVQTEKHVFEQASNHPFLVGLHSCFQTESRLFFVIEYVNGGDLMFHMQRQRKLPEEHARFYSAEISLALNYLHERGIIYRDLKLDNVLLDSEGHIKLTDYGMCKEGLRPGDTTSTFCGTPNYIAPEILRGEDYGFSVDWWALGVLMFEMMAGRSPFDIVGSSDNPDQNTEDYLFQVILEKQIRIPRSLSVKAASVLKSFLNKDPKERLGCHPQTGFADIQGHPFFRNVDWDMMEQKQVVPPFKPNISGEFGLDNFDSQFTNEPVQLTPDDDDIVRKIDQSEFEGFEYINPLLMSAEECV

[6] = molecular target: Tyrosine-protein kinase SYK (Homo sapiens) (UniProt P43405); assay: Inhibition of human recombinant SYK at 40 nM related to control ULK1
[7] = molecular target: Serine/threonine-protein kinase 25 (Homo sapiens) (UniProt O00506); assay: Inhibition of human recombinant YSK1 at 40 nM related to control ULK1
Serine/threonine-protein kinase 25 (Homo sapiens), sequence (O00506 whole entry, looked up): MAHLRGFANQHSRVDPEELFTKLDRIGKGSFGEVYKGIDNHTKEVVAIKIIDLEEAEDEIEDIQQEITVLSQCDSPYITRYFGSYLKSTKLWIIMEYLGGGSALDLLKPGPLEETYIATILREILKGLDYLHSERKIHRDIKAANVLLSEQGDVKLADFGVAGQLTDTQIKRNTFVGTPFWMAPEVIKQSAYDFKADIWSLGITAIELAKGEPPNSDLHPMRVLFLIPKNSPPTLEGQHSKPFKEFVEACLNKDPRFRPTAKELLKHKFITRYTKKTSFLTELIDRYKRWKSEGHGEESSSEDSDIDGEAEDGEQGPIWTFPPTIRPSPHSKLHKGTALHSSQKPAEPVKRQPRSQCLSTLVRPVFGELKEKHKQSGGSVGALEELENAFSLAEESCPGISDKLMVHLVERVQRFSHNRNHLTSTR

[8] = molecular target: Serine/threonine-protein kinase VRK2 (Homo sapiens) (UniProt Q86Y07); assay: Inhibition of human recombinant VRK2 at 15 nM in presence of ATP by radiometric assay relative to control
Serine/threonine-protein kinase VRK2 (Homo sapiens), sequence (Q86Y07 whole entry): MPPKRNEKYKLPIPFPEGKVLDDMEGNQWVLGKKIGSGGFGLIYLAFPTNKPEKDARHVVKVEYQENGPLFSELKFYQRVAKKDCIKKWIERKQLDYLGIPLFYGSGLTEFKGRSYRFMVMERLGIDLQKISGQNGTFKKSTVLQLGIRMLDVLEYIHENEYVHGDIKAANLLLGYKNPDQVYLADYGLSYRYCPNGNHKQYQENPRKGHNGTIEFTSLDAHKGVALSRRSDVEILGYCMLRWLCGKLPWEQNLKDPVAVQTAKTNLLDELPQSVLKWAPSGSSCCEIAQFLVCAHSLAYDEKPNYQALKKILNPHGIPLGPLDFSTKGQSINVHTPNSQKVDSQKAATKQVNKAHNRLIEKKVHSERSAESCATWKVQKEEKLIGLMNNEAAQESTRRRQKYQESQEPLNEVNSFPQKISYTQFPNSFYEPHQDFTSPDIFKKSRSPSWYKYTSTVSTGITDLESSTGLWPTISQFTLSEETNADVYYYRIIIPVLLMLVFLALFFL

[9] = molecular target: Death-associated protein kinase 3 (Homo sapiens) (UniProt O43293); assay: Inhibition of human recombinant DAPK3 at 15 nM related to control ULK1
Death-associated protein kinase 3 (Homo sapiens), sequence (O43293 whole entry, looked up): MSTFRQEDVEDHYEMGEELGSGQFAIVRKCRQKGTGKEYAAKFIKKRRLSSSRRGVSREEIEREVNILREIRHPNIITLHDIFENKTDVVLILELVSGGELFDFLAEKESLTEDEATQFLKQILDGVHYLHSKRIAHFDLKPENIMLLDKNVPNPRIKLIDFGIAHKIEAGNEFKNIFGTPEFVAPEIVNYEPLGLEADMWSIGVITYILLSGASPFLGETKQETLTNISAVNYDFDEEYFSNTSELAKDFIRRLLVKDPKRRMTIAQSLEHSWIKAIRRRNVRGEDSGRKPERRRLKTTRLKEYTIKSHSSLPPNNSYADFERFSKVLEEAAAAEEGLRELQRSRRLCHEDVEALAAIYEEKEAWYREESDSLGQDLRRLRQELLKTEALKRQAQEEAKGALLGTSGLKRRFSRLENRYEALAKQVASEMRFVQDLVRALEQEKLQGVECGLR

[10] = molecular target: T1, Tyrosine-protein kinase ITK/TSK (Homo sapiens); assay: Inhibition of human recombinant ITK at 15 nM related to control ULK1
[11] = molecular target: T4, Serine/threonine-protein kinase TAO1 (Homo sapiens) (UniProt Q7L7X3); assay: Inhibition of human recombinant TAO1 at 15 nM related to control ULK1
T4 sequence (whole entry): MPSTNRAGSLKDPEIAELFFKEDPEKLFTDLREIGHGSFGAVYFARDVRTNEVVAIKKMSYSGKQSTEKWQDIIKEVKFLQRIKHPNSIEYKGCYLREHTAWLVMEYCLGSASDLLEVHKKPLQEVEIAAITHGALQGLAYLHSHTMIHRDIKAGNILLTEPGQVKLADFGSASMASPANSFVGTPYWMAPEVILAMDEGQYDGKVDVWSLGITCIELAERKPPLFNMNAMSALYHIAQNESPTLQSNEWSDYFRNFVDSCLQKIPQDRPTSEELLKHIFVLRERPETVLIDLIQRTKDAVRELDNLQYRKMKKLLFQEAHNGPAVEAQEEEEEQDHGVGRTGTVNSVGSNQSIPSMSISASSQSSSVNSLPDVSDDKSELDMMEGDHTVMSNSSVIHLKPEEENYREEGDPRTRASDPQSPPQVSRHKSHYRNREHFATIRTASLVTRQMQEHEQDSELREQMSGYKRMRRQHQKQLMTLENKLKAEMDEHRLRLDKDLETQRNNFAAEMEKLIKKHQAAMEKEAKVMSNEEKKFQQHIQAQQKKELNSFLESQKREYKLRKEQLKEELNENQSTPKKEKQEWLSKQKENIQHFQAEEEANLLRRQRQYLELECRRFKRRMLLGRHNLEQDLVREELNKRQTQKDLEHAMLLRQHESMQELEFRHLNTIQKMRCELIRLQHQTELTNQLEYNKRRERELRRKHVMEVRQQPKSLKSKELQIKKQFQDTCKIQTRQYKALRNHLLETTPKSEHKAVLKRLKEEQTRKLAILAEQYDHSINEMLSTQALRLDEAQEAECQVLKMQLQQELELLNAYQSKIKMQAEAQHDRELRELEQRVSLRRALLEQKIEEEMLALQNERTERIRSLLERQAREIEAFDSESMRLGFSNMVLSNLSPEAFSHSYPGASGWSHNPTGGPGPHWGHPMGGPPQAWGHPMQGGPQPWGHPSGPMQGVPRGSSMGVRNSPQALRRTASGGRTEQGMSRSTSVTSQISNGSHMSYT

Fibroblast growth factor receptor 3 (Homo sapiens), sequence (P22607 23-806 limits assumed): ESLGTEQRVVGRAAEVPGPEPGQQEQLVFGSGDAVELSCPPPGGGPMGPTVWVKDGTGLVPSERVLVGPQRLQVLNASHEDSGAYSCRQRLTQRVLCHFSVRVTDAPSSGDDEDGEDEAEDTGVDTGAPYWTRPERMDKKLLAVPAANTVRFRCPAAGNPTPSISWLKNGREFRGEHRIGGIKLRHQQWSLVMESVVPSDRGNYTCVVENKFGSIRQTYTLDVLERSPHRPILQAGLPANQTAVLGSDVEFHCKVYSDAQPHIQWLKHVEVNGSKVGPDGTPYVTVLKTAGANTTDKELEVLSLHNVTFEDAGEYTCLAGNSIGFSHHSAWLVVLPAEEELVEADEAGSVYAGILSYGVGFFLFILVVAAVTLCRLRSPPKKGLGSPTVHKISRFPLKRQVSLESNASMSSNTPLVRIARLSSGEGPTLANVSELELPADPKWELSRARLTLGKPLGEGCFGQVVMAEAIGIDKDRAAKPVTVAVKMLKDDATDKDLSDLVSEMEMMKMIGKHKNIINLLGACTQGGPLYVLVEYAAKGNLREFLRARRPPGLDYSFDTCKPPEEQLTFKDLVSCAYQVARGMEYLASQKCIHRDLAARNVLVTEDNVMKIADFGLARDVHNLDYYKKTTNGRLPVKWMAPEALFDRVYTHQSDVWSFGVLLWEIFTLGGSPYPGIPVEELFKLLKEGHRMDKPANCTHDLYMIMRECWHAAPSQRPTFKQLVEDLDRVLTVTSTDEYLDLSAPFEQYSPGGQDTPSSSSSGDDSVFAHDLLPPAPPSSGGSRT

inhibition [1]: 42%
inhibition [2]: 1%
inhibition [3]: 16%
fold change (FC) [4]: 0.23
fold change (FC) [5]: 0
SMILES: CNC(=O)c1ccccc1Oc1nc(Nc2cc(OC)c(OC)c(OC)c2)ncc1Br

fold change (FC) [6]: 0
fold change (FC) [7]: 0
SMILES: O=C(N[C@@H](C1CC1)C(F)(F)F)c1cc(-c2cnn3cc(-c4ccc(F)cc4)cnc23)cs1

inhibition [8]: 0%
fold change (FC) [10]: 0.05
fold change (FC) [11]: 0
SMILES: CC(C)[C@H](NC(=O)c1cc(-c2cnn3cc(-c4ccc(OCCN5CCCCC5)cc4)cnc23)cs1)C(F)(F)F
fold change (FC) [9]: 0
